Data from paper PMC12196251, “Synthesis of New DltA Inhibitors and Their Application as Adjuvant Antibiotics to Re-Sensitize Methicillin-Resistant Staphylococcus aureus” (Molecules, 2025).
Several values for one entry are separate records, joined by “and”; a condition that tells them apart may be missing. Equal values may be shown once. Where a name gives a salt, the structure may show the parent alone. Read-outs that look alike come from different tables or passages of the source.

Assays:
[1] = target: T1, recombinant DltA from E. faecalis (Enterococcus faecalis, UniProt Q830N0); test: DltA enzyme inhibition, PPi release coupled-enzyme assay; assay type: biochemical
T1 construct: made in house; host or cells: E. coli
T1 sequence (Q830N0 1-506): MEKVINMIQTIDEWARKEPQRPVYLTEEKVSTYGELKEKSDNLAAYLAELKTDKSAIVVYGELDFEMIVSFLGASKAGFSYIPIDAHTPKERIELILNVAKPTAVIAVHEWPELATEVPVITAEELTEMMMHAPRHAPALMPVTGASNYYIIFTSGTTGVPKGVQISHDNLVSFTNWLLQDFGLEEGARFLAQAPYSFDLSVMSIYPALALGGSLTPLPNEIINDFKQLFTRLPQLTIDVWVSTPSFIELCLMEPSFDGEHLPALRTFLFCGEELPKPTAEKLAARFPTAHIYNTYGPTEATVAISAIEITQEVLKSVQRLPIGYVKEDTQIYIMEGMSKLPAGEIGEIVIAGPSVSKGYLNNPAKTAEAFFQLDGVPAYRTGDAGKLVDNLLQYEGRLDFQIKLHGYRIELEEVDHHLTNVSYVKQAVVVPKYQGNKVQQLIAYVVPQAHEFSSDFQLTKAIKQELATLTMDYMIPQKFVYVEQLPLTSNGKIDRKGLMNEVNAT
Method: (§1) All new compounds were then evaluated in vitro for enzyme inhibition against recombinant DltA from E. faecalis or S. epidermis. Half-maximal inhibitory concentrations (IC50) were then determined by measuring the amount of PPi released at different inhibitor concentrations (Table 2). […] We noticed the DltA enzyme tolerated the presence of various modifications on the 2′-position, but the activity was inversely related to the size of the introduced group. […] Despite a good predicted binding affinity (−8.7 Kcal/mol), we hypothesize that the lower activity could be explained by the fact that the squaramide nitrogen atom might not be under its anionic form, as is the case with sulfamate 1.
(§2) The DltA-catalyzed ATP-hydrolysis reaction was monitored in vitro via PPi release (DltA +D-alanine +ATP → DltA-DAla-AMP +PPi) using a coupled-enzyme assay. The purified DltA was pretreated with DltC purified from E. coli to clear D-Ala-AMP already present in the enzyme preparation after expression in E. coli. Holo-DltC is the natural protein partner of DltA, and DltC purified from E. coli BL21 (DE3) contained 51% of this active form of DltC as determined by HPLC analysis. DltA was pretreated with DltC (ratio 1:1.2), incubated for 30 min at 37 °C and 30 min at 4 °C. Three successive washes were realized on Amicon Ultra-2 Centrifugal Filter Unit—Ultracel 30 membrane 30 kDa MWCO (Merck, Darmstadt, Germany) with elution buffer EB at 4 °C. The components of the coupled enzyme assay included 1.5 μM pre-treated DltA, 20 μM of ATP, and 14 μM of D-alanine. The half-maximal inhibitory concentration (IC50) of potential DltA inhibitors was determined by the addition of different concentrations of the synthesized molecules. PPi release was determined using the PiPer—Pyrophosphate assay kit (Invitrogen, Waltham, MA, USA) according to the recommendation of the supplier. Reactions were carried out in 96-well Chimney Style, non-binding Microplates with μClear Film Bottom (Greiner Bio-one, Frickenhausen, Germany). Plates were incubated at 37 °C for 5 h and read in a FlexStation 3 Multi-Mode plate reader (Molecular Devices, Silicon Valley, CA, USA), with λ excitation of 530 nm and λ emission of 590 nm. Experiments were conducted in sextuplicate, and the IC50 was determined by linear regression of the curve.

MRSA clinical isolates = test: MIC of imipenem against MRSA in absence or presence of DltA inhibitor; assay type: cell-based, S. aureus; conditions: for MIC: Staphylococcus aureus, MRSA
Method: (§3) All these compounds were also tested […] against MRSA clinical isolates. […] The minimum inhibitory concentrations (MICs) of imipenem (IPM) were next determined in the absence or presence of 1 mM of the different DltA inhibitors to evaluate their potential to re-sensitize MRSA to this β-lactam (Table 2). […] To clarify this hypothesis, quantification of D-alanyl ester of the MRSA cell wall was performed as previously described in the presence of inhibitors (Table 2). […] These new series represent a promising structure entry not reported yet for the inhibition of DltA and the re-sensitization of bacteria toward known antibiotics.
Colonies from BHI agar plates were suspended in saline solution (0.9% NaCl) and adjusted to an OD600 of 0.5. For growth kinetics determination, 96-well microplates (Starlab, Orsay, France) containing 200 μL of fresh BHI medium were inoculated with bacterial suspensions to an OD600 of 0.02 with a wide range of DltA inhibitors (from 0 to 2 mM). Plates were incubated at 37 °C with shaking (orbital amplitude of 3 mm) in a microplate reader (InfiniteM Nano, Tecan, Seoul, Republic of Korean). OD600nm was measured every 10 min for 24 h. Determination of MIC/MBC of antibiotics and bacterial survival assays were performed as previously described using BHI medium. The DltA inhibitor was diluted in pure water and added to the growth medium to a final concentration of 0, 0.1, 0.25, 0.5, 0.75, or 1 mM.

[2] = system: D-alanyl ester of the MRSA cell wall; test: Quantification of D-alanyl ester in the bacterial cell wall; assay type: cell-based, S. aureus; conditions: inhibitor at 1 mM, value (spread)
Method: as §3
Ester-linked D-alanines were quantified as described previously, with the following modifications. Cultures were grown in 5 mL of BHI supplemented with DltA inhibitor to a final concentration of 0.05, 0.1, 0.25, 0.5, 0.75, or 1 mM for 16 h at 37 °C under shaking (120 rpm). Briefly, the quantification is based on the oxidation of a chromogen by H2O2 generated when free D-alanines are oxidized by a D-amino acid oxidase. Three independent experiments with duplicate samples were performed.

[3] = target: T2, recombinant DltA from S. epidermidis (Staphylococcus epidermidis, UniProt Q5HQN0); test: DltA enzyme inhibition, PPi release coupled-enzyme assay; assay type: biochemical
T2 construct: made in house; host or cells: E. coli
T2 sequence (Q5HQN0 1-485): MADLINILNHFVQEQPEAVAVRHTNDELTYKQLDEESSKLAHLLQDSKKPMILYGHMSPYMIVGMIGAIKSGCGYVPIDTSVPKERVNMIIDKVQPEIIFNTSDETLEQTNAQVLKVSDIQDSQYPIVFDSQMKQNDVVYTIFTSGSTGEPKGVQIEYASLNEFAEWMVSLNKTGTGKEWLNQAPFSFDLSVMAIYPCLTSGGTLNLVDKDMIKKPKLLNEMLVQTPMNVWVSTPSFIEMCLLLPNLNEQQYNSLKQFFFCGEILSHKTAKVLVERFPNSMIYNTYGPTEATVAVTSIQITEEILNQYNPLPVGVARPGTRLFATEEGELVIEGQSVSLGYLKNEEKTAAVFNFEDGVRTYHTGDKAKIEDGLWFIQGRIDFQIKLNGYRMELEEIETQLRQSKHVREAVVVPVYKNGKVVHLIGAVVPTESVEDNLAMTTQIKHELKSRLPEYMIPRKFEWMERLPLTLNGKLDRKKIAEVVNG
Method: as §1, §2

[4] = S. aureus (MRSA), in presence of 1 mM of the DltA inhibitor, read-out: MIC of IPM
[5] = S. aureus (MRSA), in presence of 1 mM of the DltA inhibitor

Row | SMILES | IC50 [1] [µM] | MIC (MRSA clinical isolates; [4]) [µg/mL] | Reduction in D-Ala Ester Residues [2] | IC50 [3] [µM] | MIC of IPM (MRSA clinical isolates; [5]) [µg/mL] | MIC (MRSA clinical isolates; read-out: MIC of IPM, S. aureus (MRSA), in presence of 1 mM of the DltA inhibitor) [µg/mL] | IC50 ([3]; Dlt from S. epidermidis, PPi release, value (spread)) | MIC (MRSA clinical isolates; tested MRSA strain, no inhibitor, read-out: MIC of IPM in the absence of an inhibitor) [µg/mL]
1 | C[C@@H](N)C(=O)NS(=O)(=O)OC[C@H]1O[C@@H](n2cnc3c(N)ncnc32)[C@H](F)[C@@H]1O [Compound 8, ((2R,3R,4R,5R)-5-(6-amino-9H-purin-9-yl)-4-fluoro-3-hydroxytetrahydrofuran-2-yl)methyl (D-alanyl)sulfamate salt] | 2.6 | 16 | 0% | – | – | – | – | –
2 | C[C@@H](N)C(=O)NS(=O)(=O)OC[C@H]1O[C@@H](n2cnc3c(N)ncnc32)[C@@H](N=[N+]=[N-])[C@@H]1O [Compound 9, ((2R,3S,4S,5R)-5-(6-amino-9H-purin-9-yl)-4-azido-3-hydroxytetrahydrofuran-2-yl)methyl (D-alanyl)sulfamate salt] | 3.8 | 8 | 74.9% and 74.9 (9.4) % | – | – | – | – | –
3 | C[C@@H](N)C(=O)NS(=O)(=O)OC[C@H]1O[C@@H](n2cnc3c(N)ncnc32)[C@H](n2cc(CO[C@@H]3O[C@H](CO)[C@@H](O)[C@H](O)[C@H]3O)nn2)[C@@H]1O [Compound 11, ((2R,3S,4R,5R)-5-(6-amino-9H-purin-9-yl)-3-hydroxy-4-(4-((((2R,3R,4S,5S,6R)-3,4,5-trihydroxy-6-(hydroxymethyl)tetrahydro-2H-pyran-2-yl)oxy)methyl)-1H-1,2,3-triazol-1-yl)tetrahydrofuran-2-yl)methyl (D-alanyl)sulfamate salt] | – | 16 to 64 | 0% | 39.5 | 32 | – | – | –
4 | CC(C)OP(=O)(OC(C)C)C(F)(F)/C=C/CO[C@@H]1[C@H](O)[C@@H](COS(=O)(=O)NC(=O)[C@@H](C)N)O[C@H]1n1cnc2c(N)ncnc21 [Compound 18, ((2R,3R,4R,5R)-5-(6-amino-9H-purin-9-yl)-4-(((E)-4-(diisopropoxyphosphoryl)-4,4-difluorobut-2-en-1-yl)oxy)-3-hydroxytetrahydrofuran-2-yl)methyl (D-alanyl)sulfamate salt] | – | – | 51.5% and 51.5 (14.2) % | 7.6 | – | 0.25 | – | –
5 | C[C@@H](N)C(=O)Nc1c(NC[C@H]2O[C@@H](n3cnc4c(N)ncnc43)[C@H](O)[C@@H]2O)c(=O)c1=O [Compound 23, 5′-N-(N-D-alanyl]-(3-amino-cyclobut-3-ene-1,2-dione))aminodeoxy adenosine salt] | 28.4 | – | 11.5 (1.3) % | – | – | – | – | –
6 | C[C@@H](N)C(=O)NS(=O)(=O)NC/C(CF)=C(\F)Cn1cnc2c(N)ncnc21 [Compound 38, (R,E)-2-amino-N-(N-(4-(6-amino-9H-purin-9-yl)-3-fluoro-2-(fluoromethyl)but-2-en-1-yl)sulfamoyl)propenamide salt] | – | 16 to 64 | 2% | > 100 | 32 | – | complete loss of the activity | –
7 | CCCCCCC(=O)N[C@H](C)C(=O)c1cn(C[C@H]2O[C@@H](n3cnc4c(N)ncnc43)[C@H](O)[C@@H]2O)nn1 [Compound 51, N-((R)-1-(1-(((2R,3S,4R,5R)-5-(6-amino-9H-purin-9-yl)-3,4-dihydroxytetrahydrofuran-2-yl)methyl)-1H-1,2,3-triazol-4-yl)-1-oxopropan-2-yl)heptanamide salt] | – | 16 to 64 | 22.2 (5.0) % | 22.2 | 16 | – | – | –
8 | C[C@@H](NC(=O)c1ccc(-c2ccccc2)cc1)C(=O)c1cn(C[C@H]2O[C@@H](n3cnc4c(N)ncnc43)[C@H](O)[C@@H]2O)nn1 [Compound 52, N-((R)-1-(1-(((2R,3S,4R,5R)-5-(6-amino-9H-purin-9-yl)-3,4-dihydroxytetrahydrofuran-2-yl)methyl)-1H-1,2,3-triazol-4-yl)-1-oxopropan-2-yl)-[1,1′-biphenyl]-4-carboxamide salt] | – | 8 | 16% and 16.0 (4.2) % | 12.4 | – | – | – | –
9 | CCCCCCOc1ccc(C(=O)N[C@H](C)C(=O)c2cn(C[C@H]3O[C@@H](n4cnc5c(N)ncnc54)[C@H](O)[C@@H]3O)nn2)cc1 [Compound 53, N-((R)-1-(1-(((2R,3S,4R,5R)-5-(6-amino-9H-purin-9-yl)-3,4-dihydroxytetrahydrofuran-2-yl)methyl)-1H-1,2,3-triazol-4-yl)-1-oxopropan-2-yl)-4-(hexyloxy)benzamide salt] | – | 16 to 64 | 12.5 (14.0) % | 16 | 16 | – | – | –
10 | C[C@@H](NC(=O)OCc1ccc([N+](=O)[O-])cc1)C(=O)c1cn(C[C@H]2O[C@@H](n3cnc4c(N)ncnc43)[C@H](O)[C@@H]2O)nn1 [Compound 54, 4-nitrobenzyl ((R)-1-(1-(((2R,3S,4R,5R)-5-(6-amino-9H-purin-9-yl)-3,4-dihydroxytetrahydrofuran-2-yl)methyl)-1H-1,2,3-triazol-4-yl)-1-oxopropan-2-yl)carbamate salt] | – | 16 to 64 | 0% | 21.9 | 16 | – | – | –
11 | C[C@@H](O)[C@H]1C(=O)N2C(C(=O)O)=C(SCCN=CN)C[C@H]12 [IPM, imipenem, reference compound] | – | – | – | – | – | – | – | 32
